Each molecule was assayed against FGFR3 kinase (Homo sapiens (Human), UniProt P22607, K650E) (assay: FGFR3 kinase inhibition (protein kinase activity assays)). Details: average of 2 independent measurements; * single value; read-out: FGFR3 IC50.
Type: biochemical
Protocol: generic assay set-up: Enzyme activities were measured by mixing 10 μL of a 3-fold concentrated compound solution or control with 10 μL of the corresponding substrate mixture (peptidic substrate, ATP and [γ^33P]ATP). The reactions were initiated by addition of 10 μL of a 3-fold concentrated solution of the respective enzyme in assay buffer. […] Filter binding (FB) method: FB assays were carried out in 96-well plates at room temperature for 10 min in a finial volume of 30 μL including the components as indicated in section above. […] After spotting, vacuum was connected and each well rinsed with 200 μL 0.5% H3PO4. Free membranes were removed and washed 4 times on a shaker with 1% H3PO4 and once with ethanol. Membranes were dried and overlaid with addition of 10 μL/well of a scintillation fluid. The plates were eventually sealed and counted in a microplate scintillation counter. IC50 values were calculated by linear regression analysis of the percentage inhibition of the compound.
generic assay set-up: The assay has been run at room temperature on a liquid handling robot. […] After an incubation time of 45 min in the dark, the plates were transferred into a fluorescence reader for counting.
Compounds of formula (I) are assayed to measure their capacity to inhibit FGFR3 kinase as described above.

Chain of FGFR3 kinase (P22607 23-806 K650E): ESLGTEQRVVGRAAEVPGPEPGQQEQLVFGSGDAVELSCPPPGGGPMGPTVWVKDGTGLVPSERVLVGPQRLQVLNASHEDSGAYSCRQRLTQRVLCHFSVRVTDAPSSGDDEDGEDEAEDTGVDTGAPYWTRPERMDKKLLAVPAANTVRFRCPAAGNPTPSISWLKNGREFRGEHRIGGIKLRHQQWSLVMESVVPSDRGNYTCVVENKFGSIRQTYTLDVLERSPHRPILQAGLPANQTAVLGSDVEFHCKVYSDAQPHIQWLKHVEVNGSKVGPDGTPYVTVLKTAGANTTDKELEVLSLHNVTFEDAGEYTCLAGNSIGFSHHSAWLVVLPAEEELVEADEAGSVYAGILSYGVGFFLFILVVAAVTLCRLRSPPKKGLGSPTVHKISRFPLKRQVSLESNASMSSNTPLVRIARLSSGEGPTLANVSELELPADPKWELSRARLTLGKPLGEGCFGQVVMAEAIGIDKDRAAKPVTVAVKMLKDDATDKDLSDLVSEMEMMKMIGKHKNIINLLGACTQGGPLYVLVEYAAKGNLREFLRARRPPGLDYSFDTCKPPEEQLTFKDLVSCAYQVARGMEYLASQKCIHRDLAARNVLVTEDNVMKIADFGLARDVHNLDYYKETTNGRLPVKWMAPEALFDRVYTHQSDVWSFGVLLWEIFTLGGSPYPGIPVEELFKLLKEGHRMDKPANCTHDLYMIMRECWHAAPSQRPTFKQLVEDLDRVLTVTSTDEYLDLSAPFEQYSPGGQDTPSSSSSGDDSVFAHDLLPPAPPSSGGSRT

Row | IC50 [nM] | Structure (SMILES)
1 | > 10000 | COc1cc(OC)c(Cl)c(-c2ccc(C(=O)Nc3ccc(C(N)=O)cc3)c3nccnc23)c1Cl [Example 3, 8-(2,6-Dichloro-3,5-dimethoxy-phenyl)-quinoxaline-5-carboxylic acid (4-carbamoyl-phenyl)-amide]
2 | > 10000 | Cc1cscc1-c1ccc(C(=O)Nc2nc(CN3CCN(C)CC3)c[nH]2)c2nccnc12 [Example 69, 8-(4-Methyl-thiophen-3-yl)-quinoxaline-5-carboxylic acid [4-(4-methyl-piperazin-1-ylmethyl)-1H-imidazol-2-yl]amide]
3 | > 10000 | Cc1cccc(C)c1-c1ccc(C(=O)Nc2nc(CN3CCN(C)CC3)c[nH]2)c2nccnc12 [Example 77, 8-(2,6-Dimethyl-phenyl)-quinoxaline-5-carboxylic acid [4-(4-methyl-piperazin-1-ylmethyl)-1H-imidazol-2-yl]-amide]
4 | > 10000 | COc1cc(OC)c(Cl)c(-c2ccc(C(=O)Nc3nnc[nH]3)c3nccnc23)c1Cl [Example 17, 8-(2,6-Dichloro-3,5-dimethoxy-phenyl)-quinoxaline-5-carboxylic acid (4H-[1,2,4]triazol-3-yl)-amide]

Same assay, conditions: read-out: rating (FGFR3 kinase IC50)

Row | IC50 [nM] | Structure (SMILES)
5 | 500 to 50000 | COc1cc(OC)c(Cl)c(-c2ccc(C(=O)Nc3nnc[nH]3)c3nccnc23)c1Cl [Example 163, 8-(2,6-Dichloro-3,5-dimethoxy-phenyl)-quinoxaline-5-carboxylic acid (4H-[1,2,4]triazol-3-yl)-amide]
6 | < 100 | CCN1CCN(c2ccc(NC(=O)c3ccc(-c4c(Cl)c(OC)cc(OC)c4Cl)c4cccnc34)cc2)CC1 [Example 159, 5-(2,6-Dichloro-3,5-dimethoxy-phenyl)-quinoline-8-carboxylic acid [4-(4-ethyl-piperazin-1-yl)-phenyl]-amide]
7 | < 100 | COc1cc(OC)c(F)c(-c2ccc(C(=O)Nc3ccc(CN4CCS(=O)(=O)CC4)cn3)c3nccnc23)c1F [Example 140, 8-(2,6-Difluoro-3,5-dimethoxy-phenyl)-quinoxaline-5-carboxylic acid [5-(1,1-dioxo-thiomorpholin-4-ylmethyl)-pyridin-2-yl]-amide]
8 | 500 to 50000 | CCN1CCN(c2ccc(NC(=O)c3ccc(-c4c(C)cccc4C)c4nccnc34)cc2)CC1 [Example 72, 8-(2,6-Dimethyl-phenyl)-quinoxaline-5-carboxylic acid [4-(4-ethyl-piperazin-1-yl)-phenyl]-amide]
9 | 500 to 50000 | COc1cc(OC)c(Cl)c(-c2ccc(C(=O)Nc3ccc(CN4CCNCC4)nc3)c3ncccc23)c1Cl [Example 171, 5-(2,6-Dichloro-3,5-dimethoxy-phenyl)-quinoline-8-carboxylic acid (6-piperazin-1-ylmethyl-pyridin-3-yl)-amide]
10 | < 100 | CCN1CCN(c2ccc(NC(=O)c3ccc(-c4c(Cl)c(OC)cc(OC)c4Cl)c4nccnc34)cc2)CC1 [Example 1, 8-(2,6-Dichloro-3,5-dimethoxy-phenyl)-quinoxaline-5-carboxylic acid [4-(4-ethyl-piperazin-1-yl)-phenyl]-amide]
11 | 500 to 50000 | COc1cc(OC)c(Cl)c(-c2ccc(C(=O)Nc3cccnc3)c3ncc(N(C)CCN(C)C)nc23)c1Cl [Example 87, 8-(2,6-Dichloro-3,5-dimethoxy-phenyl)-2-[(2-dimethylamino-ethyl)-methylamino]-quinoxaline-5-carboxylic acid pyridin-3-ylamide]
12 | 100 to 500 | COc1cc(OC)c(Cl)c(-c2ccc(C(=O)Nc3ccc(CN4CCN(C)CC4)nc3)c3ncccc23)c1Cl [Example 168, 5-(2,6-Dichloro-3,5-dimethoxy-phenyl)-quinoline-8-carboxylic acid [6-(4-methyl-piperazin-1-ylmethyl)-pyridin-3-yl]amide]
13 | 500 to 50000 | COc1cc(OC)c(Cl)c(-c2ccc(C(=O)Nc3ccc(O)cc3)c3nccnc23)c1Cl [Example 7, 8-(2,6-Dichloro-3,5-dimethoxy-phenyl)-quinoxaline-5-carboxylic acid (4-hydroxyphenyl)-amide]
14 | 100 to 500 | COc1cc(OC)c(F)c(-c2ccc(C(=O)Nc3cccnc3)c3nccnc23)c1F [Example 90, 8-(2,6-Difluoro-3,5-dimethoxy-phenyl)-quinoxaline-5-carboxylic acid pyridin-3-ylamide]
15 | < 100 | COc1cc(OC)c(Cl)c(-c2ccc(C(=O)Nc3ccc(OCCN(C)C)cc3)c3nccnc23)c1Cl [Example 5, 8-(2,6-Dichloro-3,5-dimethoxy-phenyl)-quinoxaline-5-carboxylic acid [4-(2-dimethylamino-ethoxy)-phenyl]-amide]
16 | < 100 | CCN1CCN(Cc2ccc(NC(=O)c3ccc(-c4c(F)c(OC)cc(OC)c4F)c4nccnc34)cn2)CC1 [Example 88, 8-(2,6-Difluoro-3,5-dimethoxy-phenyl)-quinoxaline-5-carboxylic acid [6-(4-ethyl-piperazin-1-ylmethyl)-pyridin-3-yl]-amide]
17 | < 100 | COc1cc(OC)c(Cl)c(-c2ccc(C(=O)Nc3ccc(CN4CCN(C)CC4)cn3)c3ncccc23)c1Cl [Example 164, 5-(2,6-Dichloro-3,5-dimethoxy-phenyl)-quinoline-8-carboxylic acid [5-(4-methyl-piperazin-1-ylmethyl)-pyridin-2-yl]amide]
18 | < 100 | COc1cc(OC)c(Cl)c(-c2ccc(C(=O)Nc3ccc(N4CCN(C(C)C)CC4)nc3)c3nccnc23)c1Cl [Example 33, 8-(2,6-Dichloro-3,5-dimethoxy-phenyl)-quinoxaline-5-carboxylic acid [6-(4-isopropyl-piperazin-1-yl)-pyridin-3-yl]-amide]
19 | 100 to 500 | CCN1CCN(Cc2ccc(NC(=O)c3ccc(-c4c(Cl)c(OC)cc(OC)c4Cl)c4cccnc34)nc2)CC1 [Example 165, 5-(2,6-Dichloro-3,5-dimethoxy-phenyl)-quinoline-8-carboxylic acid [5-(4-ethyl-piperazin-1-ylmethyl)-pyridin-2-yl]-amide]
20 | 500 to 50000 | COc1cc(OC)cc(-c2ccc(C(=O)Nc3ccc(CN4CCNCC4)cn3)c3nccnc23)c1 [Example 117]
